Measured values taken from PubChem BioAssay (NCI).
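Assay format: 96-well plates, 48-hour exposure. Here, GI50 denotes the concentration required for 50% inhibition of growth. The concentration for full growth arrest is given as TGI.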

What was measured:
Test in all cases: inhibition of tumour cell growth, NCI panel, 48 h
OVCAR-5 ovarian = system: OVCAR-5 ovarian
PC-3 prostate = system: PC-3 prostate
OVCAR-3 ovarian = system: OVCAR-3 ovarian
EKVX NSCLC = system: EKVX NSCLC
TK-10 renal = system: TK-10 renal
RPMI-8226 leukemia = system: RPMI-8226 leukemia
NCI-H226 lung = system: NCI-H226 lung
SW-620 colon = system: SW-620 colon
LOX IMVI melanoma = system: LOX IMVI melanoma
A498 renal = system: A498 renal
SK-OV-3 ovarian = system: SK-OV-3 ovarian
T-47D breast = system: T-47D breast
BT-549 breast = system: BT-549 breast
ACHN renal = system: ACHN renal
IGROV1 ovarian = system: IGROV1 ovarian
U251 CNS = system: U251 CNS
SNB-75 CNS = system: SNB-75 CNS
CCRF-CEM leukemia = system: CCRF-CEM leukemia
SK-MEL-28 melanoma = system: SK-MEL-28 melanoma
MDA-MB-468 breast = system: MDA-MB-468 breast
NCI/ADR-RES ovarian = system: NCI/ADR-RES ovarian
OVCAR-8 ovarian = system: OVCAR-8 ovarian
CAKI-1 renal = system: CAKI-1 renal
SF-539 CNS = system: SF-539 CNS
A549 NSCLC = system: A549 NSCLC
DU-145 prostate = system: DU-145 prostate
MOLT-4 leukemia = system: MOLT-4 leukemia
NCI-H522 lung = system: NCI-H522 lung
HOP-92 NSCLC = system: HOP-92 NSCLC
HOP-62 NSCLC = system: HOP-62 NSCLC
MDA-MB-435 = system: MDA-MB-435
RXF 393 renal = system: RXF 393 renal
UACC-257 melanoma = system: UACC-257 melanoma
KM12 colon = system: KM12 colon
SK-MEL-5 melanoma = system: SK-MEL-5 melanoma
MCF7 breast = system: MCF7 breast
UO-31 renal = system: UO-31 renal
HCT-116 colon = system: HCT-116 colon
SN12C renal = system: SN12C renal
SF-295 CNS = system: SF-295 CNS
OVCAR-4 ovarian = system: OVCAR-4 ovarian
MDA-MB-231 breast = system: MDA-MB-231 breast
SF-268 CNS = system: SF-268 CNS
SR leukemia = system: SR leukemia
HL-60(TB) leukemia = system: HL-60(TB) leukemia
UACC-62 melanoma = system: UACC-62 melanoma
SK-MEL-2 melanoma = system: SK-MEL-2 melanoma
M14 melanoma = system: M14 melanoma
HT29 colon = system: HT29 colon
HS 578T breast = system: HS 578T breast
NCI-H23 lung = system: NCI-H23 lung
MALME-3M melanoma = system: MALME-3M melanoma
HCT-15 colon = system: HCT-15 colon
K-562 leukemia = system: K-562 leukemia
NCI-H460 lung = system: NCI-H460 lung
COLO 205 colon = system: COLO 205 colon
786-0 renal = system: 786-0 renal
HCC-2998 colon = system: HCC-2998 colon
SNB-19 CNS = system: SNB-19 CNS

COc1ccc(-c2nc3ccc(-c4nnc(SCc5ccccc5)o4)cc3[nH]2)cc1
GI50 (OVCAR-5 ovarian): 15.6 µM | TGI (OVCAR-5 ovarian): 38.5 µM | GI50 (PC-3 prostate): 3.1 µM | TGI (PC-3 prostate): 11.2 µM | GI50 (OVCAR-3 ovarian): 2.82 µM | TGI (OVCAR-3 ovarian): 6.37 µM | GI50 (EKVX NSCLC): 3.98 µM | TGI (EKVX NSCLC): 16.6 µM | GI50 (TK-10 renal): 3.13 µM | TGI (TK-10 renal): 8.83 µM | GI50 (RPMI-8226 leukemia): 2.96 µM | TGI (RPMI-8226 leukemia): 17.4 µM | GI50 (NCI-H226 lung): 1.76 µM | TGI (NCI-H226 lung): 3.84 µM | GI50 (SW-620 colon): 7.02 µM | TGI (SW-620 colon): 44.2 µM | GI50 (LOX IMVI melanoma): 1.91 µM | TGI (LOX IMVI melanoma): 3.73 µM | GI50 (A498 renal): 2.17 µM | TGI (A498 renal): 3.97 µM | GI50 (SK-OV-3 ovarian): 5.51 µM | TGI (SK-OV-3 ovarian): 21.5 µM | GI50 (T-47D breast): 2.02 µM | TGI (T-47D breast): 4.84 µM | GI50 (BT-549 breast): 3.27 µM | TGI (BT-549 breast): 7.64 µM | GI50 (ACHN renal): 2.48 µM | TGI (ACHN renal): 6 µM | GI50 (IGROV1 ovarian): 10.7 µM | TGI (IGROV1 ovarian): 23.9 µM | GI50 (U251 CNS): 2.07 µM | TGI (U251 CNS): 4.6 µM | GI50 (SNB-75 CNS): 1.66 µM | TGI (SNB-75 CNS): 3.27 µM | GI50 (CCRF-CEM leukemia): 2.82 µM | TGI (CCRF-CEM leukemia): 19.6 µM | GI50 (SK-MEL-28 melanoma): 3.14 µM | TGI (SK-MEL-28 melanoma): 12.2 µM | GI50 (MDA-MB-468 breast): 2.36 µM | TGI (MDA-MB-468 breast): 7.36 µM | GI50 (NCI/ADR-RES ovarian): 2.51 µM | TGI (NCI/ADR-RES ovarian): 7.69 µM | GI50 (OVCAR-8 ovarian): 1.91 µM | TGI (OVCAR-8 ovarian): 3.87 µM | GI50 (CAKI-1 renal): 1.98 µM | TGI (CAKI-1 renal): 3.81 µM | GI50 (SF-539 CNS): 1.73 µM | TGI (SF-539 CNS): 3.22 µM | GI50 (A549 NSCLC): 3.48 µM | TGI (A549 NSCLC): 13.8 µM | GI50 (DU-145 prostate): 6.89 µM | TGI (DU-145 prostate): 23.4 µM | GI50 (MOLT-4 leukemia): 3.58 µM | TGI (MOLT-4 leukemia): > 100 µM | GI50 (NCI-H522 lung): 2.27 µM | TGI (NCI-H522 lung): 7.08 µM | GI50 (HOP-92 NSCLC): 6.46 µM | TGI (HOP-92 NSCLC): 24 µM | GI50 (HOP-62 NSCLC): 3.17 µM | TGI (HOP-62 NSCLC): 9.51 µM | GI50 (MDA-MB-435): 3.05 µM | TGI (MDA-MB-435): 11.3 µM | GI50 (RXF 393 renal): 2.2 µM | TGI (RXF 393 renal): 7.45 µM | GI50 (UACC-257 melanoma): 4.81 µM | TGI (UACC-257 melanoma): 23.1 µM | GI50 (KM12 colon): 11.3 µM | TGI (KM12 colon): > 100 µM | GI50 (SK-MEL-5 melanoma): 2.64 µM | TGI (SK-MEL-5 melanoma): 9.41 µM | GI50 (MCF7 breast): 2.86 µM | TGI (MCF7 breast): 12.8 µM | GI50 (UO-31 renal): 4.16 µM | TGI (UO-31 renal): 16.1 µM | GI50 (HCT-116 colon): 3.66 µM | TGI (HCT-116 colon): 15.7 µM | GI50 (SN12C renal): 2.07 µM | TGI (SN12C renal): 4.88 µM | GI50 (SF-295 CNS): 2.07 µM | TGI (SF-295 CNS): 4.42 µM | GI50 (OVCAR-4 ovarian): 2.12 µM | TGI (OVCAR-4 ovarian): 5.08 µM | GI50 (MDA-MB-231 breast): 2.55 µM | TGI (MDA-MB-231 breast): 6.3 µM | GI50 (SF-268 CNS): 3.53 µM | TGI (SF-268 CNS): 13.7 µM | GI50 (SR leukemia): 4.76 µM | TGI (SR leukemia): > 100 µM | GI50 (HL-60(TB) leukemia): 2.79 µM | TGI (HL-60(TB) leukemia): 15.5 µM | GI50 (UACC-62 melanoma): 2.15 µM | TGI (UACC-62 melanoma): 6.05 µM | GI50 (SK-MEL-2 melanoma): 2.44 µM | TGI (SK-MEL-2 melanoma): 7.73 µM | GI50 (M14 melanoma): 4.25 µM | TGI (M14 melanoma): 26.5 µM | GI50 (HT29 colon): 3.48 µM | TGI (HT29 colon): 12 µM | GI50 (HS 578T breast): 2.77 µM | TGI (HS 578T breast): 7.29 µM | GI50 (NCI-H23 lung): 4.21 µM | TGI (NCI-H23 lung): 19.8 µM | GI50 (MALME-3M melanoma): 1.81 µM | TGI (MALME-3M melanoma): 3.58 µM | GI50 (HCT-15 colon): 2.97 µM | TGI (HCT-15 colon): 11.9 µM | GI50 (K-562 leukemia): 2.9 µM | TGI (K-562 leukemia): 24.8 µM | GI50 (NCI-H460 lung): 3.71 µM | TGI (NCI-H460 lung): 16.3 µM | GI50 (COLO 205 colon): 15.9 µM | TGI (COLO 205 colon): 89.1 µM | GI50 (786-0 renal): 1.97 µM | TGI (786-0 renal): 4.26 µM | GI50 (HCC-2998 colon): 13.2 µM | TGI (HCC-2998 colon): 78.9 µM | GI50 (SNB-19 CNS): 7.81 µM | TGI (SNB-19 CNS): 21 µM
